Assay results: the Deep4Chem optical property database
Values joined by “and” are separate entries in the source; they are usually repeats but may differ in a detail not shown here. Equal entries are not always repeated.

Assay: solvent given as SMILES
[1] = in O=P(c1ccccc1)(c1ccccc1)c1ccccc1Oc1ccccc1P(=O)(c1ccccc1)c1ccccc1

Nc1ccccc1
emission maximum (in C1CCCCC1): 323.42 nm

CCCCN(CCCC)c1ccc(/C=C/c2ccc3c(c2)CCc2cc(/C=C/c4ccc(N(CCCC)CCCC)cc4)ccc2-3)cc1
emission maximum (in CS(C)=O): 536.5 nm
emission maximum (in Cc1ccccc1): 456.4 nm

Cc1cc(=O)oc2c3c4c(cc12)CCCN4CCC3
emission maximum (in C1CCCCC1): 407 nm
emission maximum (in CC#N): 450 nm
emission maximum (in CCO): 473 nm
emission maximum (in O): 489 nm

CC[N+]1(CC)CN2C(=N1)C(C(=O)O)=Cc1cc(C)c(C)cc12
emission maximum (in O): 466 nm

C(=C1c2ccccc2CCc2ccccc21)c1ccc(-c2cc(-c3ccc(C=C4c5ccccc5CCc5ccccc54)cc3)cc(-c3ccc(C=C4c5ccccc5CCc5ccccc54)cc3)c2)cc1
emission maximum (in C1CCOC1): 403 nm

CCN(CC)c1ccc2cc(C#N)/c(=N\C(=O)c3ccccc3)oc2c1
emission maximum (in CCO): 472 nm
emission maximum (in ClCCl): 460 nm

CC(C)(C)c1ccc2oc3nc4oc5ccc(N(c6ccccc6)c6ccccc6)cc5c4cc3c2c1
emission maximum (in ClC(Cl)Cl): 379 nm

O=C(O)c1c2ccccc2nc2ccccc12
emission maximum (in C1CCOC1): 418 nm
emission maximum (in C1COCCO1): 421 nm
emission maximum (in CC#N): 421 nm
emission maximum (in CCCCCO): 422 nm
emission maximum (in CCCCO): 422 nm
emission maximum (in CCCO): 422 nm
emission maximum (in CCO): 421 nm
emission maximum (in CO): 421 nm
emission maximum (in COCCOC): 419 nm
emission maximum (in ClC(Cl)Cl): 436 nm
emission maximum (in ClCCl): 422 nm
emission maximum (in OCCO): 425 nm

CC1(C)c2ccccc2N(c2ccccc2)c2ccc(-c3nc(-c4ccccc4)nc(-c4ccccc4)n3)cc21
emission maximum (in Cc1ccccc1): 430.68 nm
emission maximum [1]: 452 nm

c1ccc(-c2nc(-c3ccccc3)nc(-c3ccccc3-n3c4ccccc4c4c5oc6ccccc6c5ccc43)n2)cc1
emission maximum (in C1CCCCC1): 438.08 nm
emission maximum (in C1CCOC1): 492.26 nm
emission maximum (in Cc1ccccc1): 474.61 nm
emission maximum [1]: 456.95 nm

Nc1nc2ccc(F)cc2[n+]([O-])n1
emission maximum (in CC#N): 491 nm
emission maximum (in O): 526 nm

CCC1=C(C)C(=O)n2c1cc1c(c(C)c(C(=O)OC)n1C)c2=O
emission maximum (in C1CCCCC1): 435 nm
emission maximum (in CO): 501 nm
emission maximum (in CS(C)=O): 482 nm
emission maximum (in ClC(Cl)Cl): 455 nm
emission maximum (in c1ccccc1): 447 nm

CCOC(=O)c1cc2ccc3ccccc3c2c(C#N)c1N
emission maximum (in Cc1ccccc1): 461 nm

COC(=O)c1ccc(C2=C3C=c4sc(-c5cccs5)cc4=[N+]3[B-](F)(F)n3c2cc2sc(-c4cccs4)cc23)cc1
emission maximum (in ClCCl): 716 nm

F[B-]1(F)OC(c2ccccc2)=Cc2c3ccccc3c3ccccc3[n+]21
emission maximum (in ClC(Cl)Cl): 447 nm

c1ccc(N(c2ccccc2)c2ccc(-c3cccc4nc5ccccc5cc34)cc2)cc1
emission maximum (in C1CCOC1): 535 nm
emission maximum (in CC#N): 572 nm
emission maximum (in CC(C)OC(C)C): 496 nm
emission maximum (in CCCCCC): 462 nm
emission maximum (in CCCCOCCCC): 491 nm
emission maximum (in CCN(CC)CC): 479 nm
emission maximum (in CCOC(C)=O): 532 nm
emission maximum (in CCOCC): 507 nm
emission maximum (in CN(C)C=O): 566 nm
emission maximum (in ClCCl): 555 nm

Cc1nc2c(ccc3ccccc32)oc1=O
emission maximum (in c1ccccc1): 424 nm

Cc1cc(O)c(C(=O)/C=C/c2ccc(N(C)C)cc2)c(=O)o1
emission maximum (in CC#N): 561 nm
emission maximum (in ClCCl): 573 nm

O=S1(=O)Nc2ccc3c(c2-c2ccccc21)-c1ccccc1S(=O)(=O)N3
emission maximum (in ClCCl): 425 nm

CC1=CC(C)=[N+]2C1=C(c1ccc(C(=O)OC3C[C@@H]4CC[C@]3(C)C4(C)C)cc1)c1c(C)cc(C)n1[B-]2(F)F (some centres undefined)
emission maximum (in Cc1ccccc1): 518 nm

O=C([O-])c1ccc(C(=O)[O-])c2cc3ccccc3cc12
emission maximum (in CN(C)C=O): 430 nm

CN(C)c1ccc(-c2cc(-c3ccc(C#N)cc3)nn2C)cc1
emission maximum (in C1CCCCC1): 363 nm
emission maximum (in CC#N): 595 nm
emission maximum (in CCOC(C)=O): 481 nm
emission maximum (in CCOCC): 429 nm
emission maximum (in CN(C)C=O): 590 nm
emission maximum (in Cc1ccccc1): 410 nm
emission maximum (in ClCCl): 499 nm

CCCCCCn1c2cc(/C=C/c3ccccc3)ccc2c2ccc(/C=C/c3ccccc3)cc21
emission maximum (in ClC(Cl)Cl): 414.94 nm

CCCC1=Cc2nc1ccc1[nH]c(cc1CCC)c1nc(c(O)cc3[nH]c2cc3CCC)C(CCC)=C1
emission maximum (in Cc1ccccc1): 683 nm

Nc1cc(N)cc(-c2nc3ccccc3s2)c1
emission maximum (in C1CCCCC1): 410.5 nm
emission maximum (in C1COCCO1): 458 nm
emission maximum (in CC#N): 482 nm
emission maximum (in CC(C)O): 513 nm
emission maximum (in CCOC(C)=O): 468 nm
emission maximum (in CCOCC): 457 nm
emission maximum (in CO): 519 nm
emission maximum (in O): 541 nm

CN(C)c1ccc(C2=C3C=C(c4ccc(C#N)cc4)S[C@]34c3ccccc3[C@H]2c2ccccc24)cc1
emission maximum (in ClCCl): 601 nm

O=C1c2cc(-n3c4ccccc4c4ccccc43)ccc2S(=O)(=O)c2ccc(-n3c4ccccc4c4ccccc43)cc21
emission maximum (in C1CCOC1): 592 nm
emission maximum (in CCCCCC): 484 nm
emission maximum (in Cc1ccccc1): 546 nm
emission maximum (in ClC(Cl)Cl): 606 nm
emission maximum (in ClCCl): 614 nm

N#Cc1ccc(C#Cc2ccc3ccc4ccc(C#Cc5ccc(C#N)cc5)c5ccc2c3c45)cc1
emission maximum (in C1COCCO1): 443.3 nm
emission maximum (in CC(C)=O): 445.8 nm
emission maximum (in CCCCCC): 435.5 nm
emission maximum (in CCCCCCO): 448 nm
emission maximum (in CCO): 445.5 nm
emission maximum (in CCOC(C)=O): 442.4 nm
emission maximum (in CO): 445.3 nm
emission maximum (in Cc1ccccc1): 446.4 nm
emission maximum (in ClCCl): 448.8 nm

Cc1ccc(C2=C3C=c4c(oc5ccccc45)=[N+]3[B-](F)(F)n3c2cc2c4ccccc4oc23)cc1
emission maximum (in C1CCCCC1): 596.5 nm
emission maximum (in C1CCOC1): 596.5 nm
emission maximum (in CC#N): 595.5 nm
emission maximum (in CCOC(C)=O): 594.5 nm
emission maximum (in CN(C)C=O): 598.5 nm
emission maximum (in CO): 594.5 nm
emission maximum (in Cc1ccccc1): 603 nm
emission maximum (in ClCCl): 599 nm and 597 nm

Cc1ccc(NC(=O)c2ccc(N(C)C)cc2)cc1
emission maximum (in C1CCCCC1): 465 nm
emission maximum (in C1CCOC1): 532 nm
emission maximum (in CC#N): 502 nm
emission maximum (in CCOCC): 518 nm

Fc1cc(-c2nc(-c3ccccc3)nc(-c3ccccc3)n2)ccc1-n1c2ccccc2c2c3c(ccc21)C1(c2ccccc2-c2ccccc21)c1ccccc1-3
emission maximum (in C1CCOC1): 487.96 nm
emission maximum (in C1COCCO1): 461.11 nm
emission maximum (in CN(C)C=O): 533.56 nm
emission maximum (in Cc1ccccc1): 448 nm
emission maximum (in ClC(Cl)Cl): 500.23 nm

Cc1ccc(-c2cnc3nn4ccccc4c3n2)cc1
emission maximum (in C1CCOC1): 450 nm

C1=Cc2ccc(N(c3ccccc3)c3cccc4ccccc34)cc2C2(c3cc(N(c4ccccc4)c4cccc5ccccc45)ccc31)c1ccccc1-c1ccccc12
emission maximum (in ClCCl): 454 nm

c1ccc(N(c2ccccc2)c2ccc3c(ccc4nc5ccc6cc(N(c7ccccc7)c7ccccc7)ccc6c5nc43)c2)cc1
emission maximum (in C1CCCCC1): 492 nm
emission maximum (in C1CCOC1): 552 nm
emission maximum (in CN(C)C=O): 626 nm
emission maximum (in Cc1ccccc1): 512 nm
emission maximum (in ClCCl): 576 nm

CCn1c2ccccc2c2cc(C#Cc3cc(C#Cc4ccc5c(c4)c4ccccc4n5CC)ncn3)ccc21
emission maximum (in C1CCOC1): 451 nm
emission maximum (in CCOC(C)=O): 445 nm
emission maximum (in CN(C)C=O): 502 nm
emission maximum (in Cc1ccccc1): 411 nm
emission maximum (in ClCCl): 484 nm

COc1cccc(OC)c1-c1c2ccccc2c(-c2c(OC)cccc2OC)c2ccccc12
emission maximum (in C1CCCCC1): 425 nm

CC(C)(C)c1ccccc1N(c1ccccc1)c1ccc(S(=O)(=O)c2ccc(S(=O)(=O)c3ccc(N(c4ccccc4)c4ccccc4C(C)(C)C)cc3)cc2)cc1
emission maximum (in Cc1ccccc1): 444 nm
emission maximum (in c1cc(-n2c3ccccc3c3ccccc32)nc(-n2c3ccccc3c3ccccc32)c1): 465.06 nm

[C-]#[N+]c1ccc(-c2ccc(NC)cc2)cc1
emission maximum (in C1CCCCC1): 368 nm
emission maximum (in C1CCOC1): 406 nm
emission maximum (in C1COCCO1): 395 nm
emission maximum (in CC#N): 421 nm
emission maximum (in CC(C)=O): 427 nm
emission maximum (in CCCCCC): 366 nm
emission maximum (in CCOC(C)=O): 403 nm
emission maximum (in CN(C)C=O): 435 nm
emission maximum (in CO): 422 nm
emission maximum (in CS(C)=O): 436 nm
emission maximum (in Cc1ccccc1): 388 nm
emission maximum (in ClC(Cl)Cl): 400 nm
emission maximum (in ClCCl): 405 nm
emission maximum (in O): 458 nm
emission maximum (in c1ccncc1): 421 nm

COc1ccc2n1[B-](F)(F)[N+]1=CC=CC1=C2c1ccccc1
emission maximum (in CC#N): 513 nm
emission maximum (in CCCCCC): 514 nm
emission maximum (in CCOC(C)=O): 514 nm
emission maximum (in CO): 512 nm
emission maximum (in ClCCl): 518 nm

Cc1ccc(C2=C3C=CC(Nc4ccccc4)=[N+]3[B-](F)(F)n3c(Nc4ccccc4)ccc32)cc1
emission maximum (in CO): 613 nm

CN(C)c1ccc2c3c(ccc2c1)CCCC3=O
emission maximum (in C1CCCCC1): 449 nm
emission maximum (in CC#N): 523 nm
emission maximum (in CC(C)O): 520 nm
emission maximum (in CCC(C)=O): 517 nm
emission maximum (in CCO): 495 nm
emission maximum (in CCOC(C)=O): 506 nm
emission maximum (in CS(C)=O): 538 nm
emission maximum (in Cc1ccccc1): 478 nm
emission maximum (in ClCCl): 511 nm
emission maximum (in Clc1ccccc1): 498 nm

C1=Nc2cccc3cccc(c23)N1
emission maximum (in CC#N): 476 nm
emission maximum (in CO): 485 nm
emission maximum (in CS(C)=O): 482 nm
emission maximum (in Cc1ccccc1): 472 nm

c1ccc(-n2c3ccccc3c3cc(-c4cccc(-n5c6cccnc6c6c7sc8ccccc8c7ccc65)c4)ccc32)cc1
emission maximum (in ClCCl): 384 nm

CC1=CC(C)=[N+]2C1=C(c1ccccc1)c1c(C)c(-c3cccs3)c(C)n1[B-]2(F)F
emission maximum (in CO): 600 nm
emission maximum (in Cc1ccccc1): 591 nm
emission maximum (in ClCCl): 594 nm

N#Cc1ccc(/C=C/C(F)(F)F)c(N)c1
emission maximum (in C1CCOC1): 439 nm

COc1ccc(NC(=O)C(C(=O)Nc2ccc(OC)cc2)C(c2ccccc2O)c2c(C)[nH]c3ccccc23)cc1 (centres undefined)
emission maximum (in CO): 350 nm
emission maximum (in CS(C)=O): 360 nm

Cc1cc(=O)cc(-c2ccc(-c3nc4ccccn4c3NC3CCCCC3)cc2)o1
emission maximum (in ClCCl): 500 nm

N#Cc1c2oc3ccccc3oc2c(C#N)c2oc3ccccc3oc12
emission maximum (in ClC(Cl)Cl): 475 nm
